Source: US10512691B2, “Systems and methods for targeted imaging and ablation of cardiac cells” (THE REGENTS OF THE UNIVERSITY OF MICHIGAN, priority 2012, dated 2019)
Like-named read-outs stand apart in the source and are kept apart here. Peptide text beside a SMILES is read from it.

Tests used:
[1] = known, when injected in blood; cited from earlier work
[2] = system: cardiac tissue; conditions: contemplated, citing Zahid et al.; cited from earlier work
[3] = system: cardiac tissue; assay: CTP transduction of cardiac tissue after peripheral intravenous injection; assay type: in vivo; conditions: 15 minutes post-peripheral intravenous injection in mice
Excerpt: In some embodiments, nanoparticles comprise cardiac targeting moieties. In some embodiments, targeting moieties target myocytes. In some embodiments, the cardiac targeting moiety is cardiac targeting peptide (CTP) (Zahid et al., PloS one 2010; 5:e12252, herein incorporated by reference in its entirety). This peptide has the sequence […] (SEQ ID NO:1). In some embodiments, variants (e.g., sequence variants) of cardiac targeting peptide that retain the ability to specifically bind to myocytes are utilized. […] Thus, CTP is specific to the heart and cell type specific to myocytes. CTP also works in rat, and sheep and human (Zahid, et. al, supra).

[4] = In vivo blood stability of photosensitizer; conditions: action of blood reducing enzymes
Excerpt: In vivo testing as described above was repeated with an improved CTP-Ce6-8-arm-PEG platform as described above.

chlorin e6 [Ce6]
stability in blood in vivo [1]: remain stable when injected in blood

CC(C)C[C@H](NC(=O)[C@H](Cc1c[nH]cn1)NC(=O)[C@H](Cc1c[nH]c2ccccc12)NC(=O)[C@@H]1CCCN1C(=O)[C@H](C)N)C(=O)N[C@@H](CO)C(=O)N[C@@H](CO)C(=O)N[C@@H](CCC(N)=O)C(=O)N[C@@H](Cc1ccc(O)cc1)C(=O)N[C@@H](CO)C(=O)N[C@@H](CCCNC(=N)N)C(=O)N[C@H](C(=O)O)[C@@H](C)O [CTP] (H-APWHLSSQYSRT-OH; N-terminus and C-terminus assumed)
time for CTP to reach the heart [2]: approximately 15 minutes | transduction of cardiac tissue [3]: efficiently and specifically transduce cardiac tissue | uptake in other organs [3]: No other organ showed uptake except kidney glomeruli, limited to the cortex, and rare lung capillaries

CN(C)c1ccc2nc3ccc(=[N+](C)C)cc-3sc2c1 [methylene blue]
stability in blood in vivo [4]: decreased in vivo
